Measurements taken from patent US20210259960A1, “FORMULATION CONTAINING EMRICASAN” (The Doshisha, priority 2018, published 2021).

What was measured:
[1] = Solubility of emricasan with 2% surfactant at various pH, visually observed (Example 1); assay type: physicochemical
Experimental: 28 mg, which is the amount for the target concentration, of emricasan powder (Chemscene) was accurately measured with an electronic balance (AUW220D, SHIMADZU) and transferred to a glass test tube. 100 μl of 99% ethanol was added thereto to dissolve the emricasan powder. The solution thereof was sufficiently stirred with a vortex mixer in order to completely dissolve the emricasan powder. The solution thereof was then added with each of polysorbate 80 (Tween 80, NIKKOL), polyoxyethylene hydrogenated castor oil (HCO-60, NIKKOL), and polyethylene glycol monostearate (MYS-40, NIKKOL), which are nonionic surfactants comprising a polyoxyethylene group, so that the final concentration was 2%, followed by sufficient stirring. Phosphate buffered saline (PBS) was added to this solution so that the total amount was 5 ml, and the solution was sufficiently stirred and solubility was visually observed.

[2] = Solubility of emricasan with 0.5% of various surfactants at low pH, visually observed (Example 2); assay type: physicochemical; details: target 10 mmol/L; surfactant 0.5% (HCO-100, HCO-60, HCO-40, HCO-20, CO-35, MYS-40, poloxamer 407)
Experimental: In this example, a target dissolution concentration of emricasan was set to be 10 mmol/L in the same manner as Example 1. 28 mg of emricasan was accurately measured with an electronic balance (AUW220D, SHIMADZU) and transferred to a glass test tube. 100 μl of 99% ethanol was added thereto to dissolve emricasan. The solution thereof was sufficiently stirred with a vortex mixer in order to completely dissolve emricasan. The solution thereof was then added with polyoxyethylene hydrogenated castor oil 100 (HCO-100, NIKKOL), polyoxyethylene hydrogenated castor oil (HCO-60, NIKKOL), polyoxyethylene hydrogenated castor oil 40 (HCO-40, NIKKOL), polyoxyethylene hydrogenated castor oil 20 (HCO-20, NIKKOL), polyoxyethylene castor oil (CO-35:, NIKKOL), polyethylene glycol monostearate 40 (MYS-40, NIKKOL), and polyoxyethylene polyoxypropylene glycol 407 (poloxamer 407, NIKKOL), which are nonionic surfactants comprising a polyoxyethylene group, so that the final concentration was 0.5%, followed by sufficient stirring. Phosphate buffered saline (PBS) was added to this solution so that the total amount was 5 ml, and the solution was sufficiently stirred and solubility was visually observed.

[3] = Lyophilization test of emricasan ophthalmic solution, re-solubility by HPLC (Example 6); assay type: physicochemical; details: water added
Experimental: 7 mg of emricasan was accurately measured with an electronic balance (AUW220D, SHIMADZU) and transferred to a glass test tube. 140 μl of 99% ethanol was added thereto to dissolve emricasan. The solution thereof was sufficiently stirred with a vortex mixer in order to completely dissolve emricasan. The solution thereof was then added with polysorbate 80 (Tween 80, NIKKOL), which is a surfactant, so that the final concentration was 0.5%, followed by sufficient stirring. Ethanol was then distilled off by a nitrogen gas stream. D-mannitol (Wako Pure Chemical Industries, Ltd.) was dissolved into phosphate buffered saline (PBS) so that the final concentration was 4.5%, and the solution thereof was adjusted to pH 4.5 and added to the above solution so that the total amount was 7 ml. This solution was sufficiently stirred, and preserved in a −83° C. freezer for one day. After freezing, water was completely removed by a lyophilization machine (FDU-1200, TOKYO RIKAKIKAI CO, LTD) for 12 hours.
Water was then added to study the re-solubility. Further, after this sample was filtered with a 0.22 μmGV filter (Merck Millipore), the re-solubility of emricasan was measured by a high performance liquid chromatography (HPLC, Shimadzu Corporation). […]

[4] = Stability of emricasan in solution using Tween 80, HPLC (Example 4); assay type: physicochemical; details: 0.5% emricasan, 0.5% Tween 80
Experimental: (§1) Stability of when Tween 80 was used as a surfactant to dissolve emricasan to a final concentration of 0.5% was tested. 500 mg of emricasan was accurately measured with an electronic balance (AUW220D, SHIMADZU) and transferred to a glass test tube. 2 ml of 99% ethanol was added thereto to dissolve emricasan. The solution thereof was sufficiently stirred with a vortex mixer in order to completely dissolve emricasan. The solution thereof was then added with polysorbate 80 (Tween 80, NIKKOL), which is a surfactant, so that the final concentration was 0.5%, followed by sufficient stirring. Ethanol was then distilled off by a nitrogen gas stream. In order to adjust osmotic pressure, concentrated glycerin was added to this solution so that the final concentration was 1%. Phosphate buffered saline (PBS) was adjusted to pH 8, and added so that the total amount was 100 ml. After the solution was sufficiently stirred, 20 ml was collected and filtered with a 0.22 μmGV filter (Merck Millipore). 5 ml of the first filtrate was discarded, and 15 ml of the subsequent filtrate was collected. 5 ml of this filtrate was placed in each glass test tube for 4° C., 25° C., and 37° C., shaded by a parafilm and an aluminum foil, and preserved under each temperature condition. The stability of this sample was studied by a high performance liquid chromatography (HPLC, Shimadzu Corporation). […]

[5] = Stability of emricasan in an acidic region using Tween 80, HPLC (Example 5); assay type: physicochemical
Experimental: Stability of when Tween 80 was used as a surfactant to dissolve emricasan to a final concentration of 0.1% was tested.
45 mg of emricasan was accurately measured with an electronic balance (AUW220D, SHIMADZU) and transferred to a glass test tube. 0.9 ml of 99% ethanol was added thereto to dissolve emricasan. The solution thereof was sufficiently stirred with a vortex mixer in order to completely dissolve emricasan. The solution thereof was then added with polysorbate 80 (Tween 80, NIKKOL), which is a surfactant, so that the final concentration was 0.5%, followed by sufficient stirring. Ethanol was then distilled off by a nitrogen gas stream. In order to adjust osmotic pressure, concentrated glycerin was added to this solution so that the final concentration was 1%. Phosphate buffered saline (PBS) was adjusted to pH 5.5, and added so that the total amount was 45 ml. After the solution was sufficiently stirred, 20 ml was collected and filtered with a 0.22 μmGV filter (Merck Millipore). 5 ml of the first filtrate was discarded, and 15 ml of the subsequent filtrate was collected. 5 ml of this filtrate was placed in each glass test tube for 4° C., 25° C., and 37° C., shaded by a parafilm and an aluminum foil, and preserved under each temperature condition. The stability of this sample was studied by a high performance liquid chromatography (HPLC, Shimadzu Corporation). HPLC conditions were as follows: acetonitrile containing 0.05% trifluoroacetic acid and water were used at the ratio of 60:40 as a mobile phase, the temperature of VR-ODS column (4.6×150 mm, Shimadzu Corporation) was set to be 40° C., the flow rate was set to be 1.0 ml/min, the detection wavelength was set to be 254 nm, the injection volume was set to be 10 μl, and the detection time was set to be 10 minutes. In this case, the stability was studied over time by assuming the results of HPLC measurement immediately after preparation to be 100% and comparing said results with the results after 2 weeks and 4 weeks. Further, the condition of pH 4.5 was prepared and studied in the same method as described above.

[6] = Stability of emricasan in solution using HCO-60, HPLC (Example 3); assay type: physicochemical; details: 0.5% emricasan, 0.5% HCO-60
Experimental: as §1, with “when HCO-60” for “when Tween 80”, “with polyoxyethylene hydrogenated castor oil 60 (HCO-60,” for “with polysorbate 80 (Tween 80,”, “collected. […] In this case, the stability was evaluated over time by assuming the results” for “collected. 5 ml”, “of HPLC measurement immediately after preparation to be 100%” for “of this filtrate was placed in each glass test tube for 4° C., 25° C.,”, “and comparing said results with the results after 2 weeks” for “and 37° C., shaded by a parafilm”, “and 4 weeks.” for “and an aluminum foil, and preserved under each temperature condition. The stability of this sample was studied by a high performance liquid chromatography (HPLC, Shimadzu Corporation).”

[7] = test system: immortalized cells in Fuchs' endothelial corneal dystrophy (iFECD); details: in vitro; cited from earlier work

## C[C@H](NC(=O)C(=O)Nc1ccccc1C(C)(C)C)C(=O)N[C@@H](CC(=O)O)C(=O)COc1c(F)c(F)cc(F)c1F [emricasan]
[1]; HCO-60 2%, pH 5.0, target 10 mmol/L
  solubility (visually observed): a suspended state was maintained
[1]; Tween 80, HCO-60 or MYS-40 2%, pH 7, target 10 mmol/L
  solubility (visually observed): dissolution of all of the emricasan was observed
[1]; no surfactant, at a concentration for use in an eye drop
  solubility in saline, phosphate buffer, purified water: poorly soluble
[1]; no surfactant, pH 7.0 to 8.0, target 10 mmol/L
  solubility (visually observed): dissolution was not observed
[1]; target 10 mmol/L, nonionic polyoxyethylene surfactant 2%
  minimum pH value of a solvent in which dissolution was visually observed: 6.0
[1]; with surfactant 2%, pH 5.0, target 10 mmol/L
  solubility (visually observed): slightly dissolved
[2]
  final pH at which dissolution was observed: ≥ 6.5
[3]; lyophilized (0.5% Tween 80, 4.5% D-mannitol, pH 4.5), after 0.22 μm filtration
  amount of emricasan dissolved relative to before lyophilization: about 88%
[3]; lyophilized sample
  re-solubility after addition of water (appearance): immediately dissolved but was pale white
[4]; 25° C. and 37° C.
  stability in solution: degradation of emricasan was observed
[4]; pH 6 to 8, 4° C., 4 weeks
  emricasan which was not degraded (residual vs immediately after preparation): no less than 90%
[5]; 0.1% emricasan, 0.5% Tween 80, pH 4.5, 25° C., 2 weeks
  emricasan which was not degraded: no less than 90%
[5]; 0.1% emricasan, 0.5% Tween 80, pH 4.5 and 5.5, 4° C., 4 weeks
  emricasan which was not degraded: no less than 90%
[5]; 0.1% emricasan, 0.5% Tween 80, pH 4.5 and pH 5.5, 37° C.
  stability in solution: degradation of emricasan was observed
[5]; 0.1% emricasan, 0.5% Tween 80, pH 5.5, 25° C., 2 weeks
  emricasan which was not degraded: less than 90%
[5]; 0.1% emricasan, 0.5% Tween 80, pH 5.5, 25° C., 4 weeks
  emricasan which was not degraded: no less than 50%
[5]; 0.5% Tween 80, pH 4.5 and pH 5.5
  solubility at final concentration of 0.1%: dissolved
[5]; pH on the acidic side
  amount of emricasan that dissolves: at least 0.1 % by weight
[6]; 25° C. and 37° C.
  stability in solution: degradation of emricasan was observed
[6]; pH 6 to 8, 4° C., 4 weeks
  emricasan which was not degraded (residual vs immediately after preparation): no less than 90%
[7]
  concentration that exhibited pharmacological activity: 10 μmol/L
